According to PubChem BioAssay (NCI):
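Grown in 96-well plates, cells were treated for 48 hours with each compound at five concentrations. Insufficient inhibition: endpoint recorded as highest concentration tested. TGI: concentration producing complete growth inhibition.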

How the values were obtained:
Assay in all cases: NCI-60 cell line screen, 48 h
[1] = tested on: SF-295 CNS
[2] = tested on: OVCAR-5 ovarian
[3] = tested on: SK-MEL-2 melanoma
[4] = tested on: SNB-75 CNS
[5] = tested on: 786-0 renal
[6] = tested on: SK-MEL-28 melanoma
[7] = tested on: NCI-H460 lung
[8] = tested on: TK-10 renal
[9] = tested on: NCI-H226 lung
[10] = tested on: UO-31 renal
[11] = tested on: CCRF-CEM leukemia
[12] = tested on: KM12 colon
[13] = tested on: MCF7 breast
[14] = tested on: DU-145 prostate

Row | Structure (SMILES) | TGI [1] [µM] | TGI [2] [µM] | TGI [3] [µM] | TGI [4] [µM] | TGI [5] [µM] | TGI [6] [µM] | TGI [7] [µM] | TGI [8] [µM] | TGI [9] [µM] | TGI [10] [µM] | TGI [11] [µM] | TGI [12] [µM] | TGI [13] [µM] | TGI [14] [µM]
1 | Cc1ccc(S(=O)(=O)c2c(N)n(CCN(C)C)c3nc4ccccc4nc23)cc1 | > 100 | > 100 | > 100 | > 100 | > 100 | > 100 | > 100 | > 100 | > 100 | > 100 | > 100 | > 100 | – | –
2 | O=C(/C=C(\O)c1ccccc1)c1cc(-c2ccccc2)n(-c2ccccc2)n1 | > 100 | > 100 | > 100 | – | 67.8 | – | 98.4 | > 100 | 25.2 | 39.9 | 7.16 | > 100 | > 100 | > 100
3 | Cc1ccccc1N=NC(C(=O)c1ccccc1)C(=O)c1ccccc1 | > 100 | 81.2 | 46.5 | 70.5 | 78.3 | > 100 | – | > 100 | 32.2 | 50.2 | 53.9 | > 100 | – | –
4 | Cc1cc(Cl)ccc1C1OC(=O)c2c1ccc1ccccc21 (stereo unspecified) | > 100 | > 100 | > 100 | > 100 | > 100 | > 100 | > 100 | > 100 | > 100 | > 100 | > 100 | > 100 | – | –
5 | C[C@]12CC[C@H](O)CC1=CC[C@@H]1C2CC[C@]2(C)Nc3c(cnn3-c3ccc(F)cc3)CC12 (stereo partly specified) | 6.82 | > 100 | – | 16.5 | 16 | > 100 | > 100 | > 100 | > 92.7 | > 92.4 | > 100 | > 100 | > 100 | > 100
6 | COc1ccc(N=[N+]([O-])c2ccc(OC)cc2)cc1 | > 100 | > 100 | > 100 | > 100 | > 100 | > 100 | > 100 | > 100 | – | > 100 | – | > 100 | > 100 | > 100
7 | Cc1cc(N(CCC#N)CCC#N)ccc1C=Nc1ccc(C(=O)NN2C(=O)/C(=C/c3ccc(N(CCC#N)CCC#N)cc3)N=C2c2cc([N+](=O)[O-])ccc2Cl)cc1 | – | > 100 | > 100 | > 100 | > 100 | > 100 | > 100 | > 100 | > 100 | > 100 | > 100 | > 100 | – | –
8 | CC[C@@H]1/C=C/C=C/C[C@H](C)[C@@H](O)[C@](C)(O)C(=O)[C@H](C)[C@@H](O)[C@H](C)C(=O)[C@H](C)[C@@H](O)[C@H](C)/C=C/C(=O)O[C@H]2[C@@H](C)[C@@H](CC1)O[C@@]1(CC[C@@H](C)[C@@H](CC(C)O)O1)[C@@H]2C (stereo partly specified) | 9.05 | 7.38 | 8.4 | 9.11 | 4.45 | 25.3 | 4.25 | 12.3 | – | 12.3 | 6.05 | 11.7 | 7.08 | 6.76
9 | COc1ccccc1CNC(=O)[C@H](Cc1ccc(O)cn1)NC(C)=O | > 100 | > 100 | > 100 | – | > 100 | > 100 | > 100 | > 100 | > 100 | > 100 | > 100 | > 100 | > 100 | > 100
10 | CC(CCCOC(c1ccccc1)(c1ccccc1)c1ccccc1)OC(=O)Nc1ccccc1 (stereo unspecified) | 25.3 | 26.8 | – | 27.9 | 29.9 | 28.7 | 24.8 | 34.7 | 25.6 | 23.7 | 33.1 | 27.1 | – | –
11 | c1ccc(CC2(c3cc4ccccc4[nH]3)OCCO2)nc1 | > 100 | > 100 | > 100 | > 100 | > 100 | > 100 | > 100 | > 100 | > 100 | > 100 | > 100 | > 100 | – | > 100
12 | COc1ccc(CCc2nccn2C)cc1OC | > 100 | > 100 | > 100 | – | > 100 | > 100 | > 100 | > 100 | – | > 100 | > 100 | – | > 100 | –
13 | COP(=O)(OC)/C(=C\c1cn(C(c2ccccc2)(c2ccccc2)c2ccccc2)cn1)NC(C)=O | > 100 | > 100 | – | > 100 | > 100 | > 100 | > 100 | > 100 | > 100 | > 100 | > 100 | > 100 | > 100 | > 100
14 | CCOP(=O)(OCC)/C(C#N)=C/c1ccnc2ccccc12 | 57.9 | 51 | 50.5 | 75.8 | 51.2 | > 100 | > 100 | > 100 | 55.9 | – | – | 91.3 | > 100 | > 100
15 | COc1cc(C(=O)Oc2c(C#N)sc3c2c(=O)n(-c2ccccc2)c(=S)n3-c2ccccc2)cc(OC)c1OC | 27.9 | 46.7 | – | 50.3 | > 100 | 46.3 | 68.1 | 95.9 | 32.7 | – | 28.9 | 39.7 | 57.1 | 42.3
16 | COc1ccc(NC2CC(C)N(C(=O)c3ccccc3)O2)cc1 (stereo unspecified) | > 10 | > 10 | > 10 | > 10 | > 10 | > 10 | > 10 | > 10 | – | > 10 | > 10 | – | > 10 | > 10
17 | CC(C)(C)S(=O)OC12CC3CC(CC(C3)C1)C2 (stereo unspecified) | > 100 | > 100 | > 100 | > 100 | > 100 | > 100 | > 100 | > 100 | > 100 | > 100 | > 100 | – | – | –
18 | CC1=NN(C(=O)CC(=O)Nc2cccc(Cl)c2)C(=O)C1N=Nc1ccc(C(=O)O)cc1 (stereo unspecified) | > 100 | > 100 | > 100 | > 100 | > 100 | > 100 | > 100 | > 100 | – | > 100 | > 100 | > 100 | > 100 | > 100

Row | Structure (SMILES) | TGI [1] [µM] | TGI [2] [µM] | TGI [3] [µM] | TGI [4] [µM] | TGI [5] [µM] | TGI [6] [µM] | TGI [7] [µM] | TGI [8] [µM] | TGI [9] [µM] | TGI [10] [µM] | TGI [11] [µM] | TGI [12] [µM] | TGI [13] [µM] | TGI [14] [µM]
19 | O=C(CSC1=NNC2(C(=O)N1)c1ccccc1-c1ccccc12)NC(=S)Nc1ccccc1 | > 10 | > 10 | – | > 10 | > 10 | > 10 | > 10 | > 10 | > 10 | > 10 | > 10 | > 10 | > 10 | > 10
20 | CC(=O)C1=CCC2c3[nH]c4ccccc4c3CCN2C1 (stereo unspecified) | > 100 | > 100 | > 100 | 88.3 | > 100 | > 100 | > 100 | > 100 | > 100 | > 100 | > 100 | > 100 | – | –
21 | COc1ccc2c(c1)CCC(OS(=O)(=O)CC13CCC(CC1=O)C3(C)C)C2=O (stereo unspecified) | – | > 100 | 55.8 | > 100 | 40.4 | > 100 | 38.6 | 95.9 | 65.2 | > 100 | > 100 | 41.1 | – | –
22 | c1ccc2cc3c(cc2c1)nc1ccccn13 | > 100 | > 100 | – | > 100 | > 100 | > 100 | – | > 100 | > 100 | > 100 | > 100 | > 100 | > 100 | > 100
23 | C=CCN1CN(c2ccccc2)C2(CCN(CCCC3(c4ccc(F)cc4)OCCO3)CC2)C1=O | 33 | 23.8 | – | 32.8 | 33.6 | 30.8 | – | 33.5 | 36.2 | 22.3 | 41.4 | 29.8 | 30.5 | 61.1
24 | O=C1NC2(CCN(CCCC3(c4ccc(F)cc4)OCCO3)CC2)Oc2ccccc21 | > 100 | > 100 | – | > 100 | > 100 | > 100 | > 100 | > 100 | > 100 | > 100 | > 100 | > 100 | > 100 | > 100
25 | O=c1[nH]n(Cc2ccccc2Cl)c2ccccc12 | – | > 100 | > 100 | > 100 | > 100 | > 100 | > 100 | > 100 | > 100 | > 100 | > 100 | > 100 | – | > 100
26 | CCOC(OC1=C(C#N)CCCC1)C(C)[Se]c1ccccc1 (stereo unspecified) | > 100 | > 100 | > 100 | > 100 | 31.4 | 71.6 | > 100 | > 100 | > 100 | > 100 | 65 | > 100 | – | –
27 | Cc1cccc2c(=O)c3cccc([C@@H](C)C(=O)O)c3oc12 | > 100 | – | > 100 | – | > 100 | > 100 | > 100 | > 100 | > 100 | > 100 | > 100 | > 100 | – | > 100
28 | CC(=O)ON(C(C)=O)c1ccc(-c2nc3ccccc3s2)cc1C | > 100 | 55.2 | > 100 | > 100 | > 100 | > 100 | > 100 | > 100 | > 100 | > 100 | > 100 | > 100 | – | > 100
29 | COc1cc2c(cc1OC)C(=O)N(NC1=NCCN1)C2=O | > 100 | > 100 | > 100 | – | > 100 | > 100 | > 100 | > 100 | > 100 | – | > 100 | > 100 | > 100 | > 100
30 | N#Cc1sc2c(c1O)c(=O)n(-c1ccccc1)c(=S)n2-c1ccccc1 | > 100 | > 100 | > 100 | > 100 | > 100 | > 100 | > 100 | > 100 | > 100 | > 100 | – | > 100 | > 100 | > 100
31 | C[N+](C)=c1nc(N2CCc3ccccc3C2)ss1 | – | – | > 100 | > 100 | > 100 | > 100 | > 100 | > 100 | > 100 | > 100 | > 100 | > 100 | – | –
32 | O=C1Oc2cc3c(c4cccc1c24)O[C@H](c1ccccc1)[C@@H](c1ccccc1)[C@@H]3c1ccc(Cl)cc1 | > 100 | > 100 | – | – | > 100 | > 100 | > 100 | > 100 | > 100 | – | > 100 | > 100 | > 100 | > 100
33 | CC(=O)O[C@@H](C1C[C@@H](C)[C@H]2[C@@](O)(O1)[C@H](O)[C@@]1(C)C3=CC[C@H]4C(C)(C)[C@@H](OC5OCC(O)C(O)C5O)CC[C@@]45C[C@@]35CC[C@]21C)C(C)(C)O (stereo partly specified) | 48.1 | 56.6 | 36.9 | – | 63.6 | 57 | 40.6 | 69.5 | 45.9 | 62.2 | 24.4 | 58.1 | 50.3 | 70
34 | NCc1cc(O)c(O)c(O)c1 | > 100 | > 100 | > 100 | > 100 | > 100 | > 100 | > 100 | > 100 | > 100 | > 100 | > 100 | > 100 | – | –
35 | CN(C)Cc1cc(N=Nc2ccc(Cl)cc2)ccc1OC(=O)c1ccccc1 | 28.7 | 30.6 | – | 38.7 | 27.8 | 29.7 | 32.4 | 29.8 | 54.3 | 25.2 | 38.8 | 29.6 | 28.7 | 30.7
